Results reported in patent publication US4556674A, “2-Imino-pyrrolidines, process for their preparation, and therapeutic compositions containing same” (Laboratoires Jacques Logeais, priority 1983, dated 1985).

Columns and labels:
[1] = system: collagen-induced blood-platelet aggregation (platelet rich plasma); experiment: Collagen-induced blood-platelet aggregation; assay type: cell-based, rabbit; settings: for minimal effective concentration: Oryctolagus cuniculus, Platelet, read-out: Collagen-induced blood-platelet aggregation: Threshold concentrations (inhibition of aggregation <50%)
Method: Collagen-induced blood-platelet aggregation
Blood samples were taken from the carotid artery in rabbits, using an anticoagulant (sodium citrate at 3.8%, 1 volume per 9 volumes of blood). The platelet rich plasma (PRP) was obtained by slow centrifugation (1200 RPM for 10 mn), and the platelet poor plasma (PPP) by rapid centrifugation (4500 RPM for 15 mn). The PRP samples were placed in the cell of an aggregometer, incubated at 37° C., after which was added thereto Michaelis buffer containing the test compound (0.04 ml), followed by the aggregating agent (collagen: 0.08 ml of collagen suspension previously incubated at 33° C. for 90 seconds). Blood-platelet aggregation is evidenced by the decrease of the optical density of the PRP (Initial O.D. of the PRP: 100%. Initial O.D. of the PPP=0%.)

[2] = system: cardiac rhythm; settings: described in DE-A-1770 752; cited from earlier work
[3] = Acute Toxicity in Mice; assay type: in vivo; settings: mouse, in vivo, death rate recorded 9 days after treatment
Method: (§1) The compounds were administered orally or intraperitoneally, in the form of a solution in physiological saline (0,9 % NaCl), to male mice of Swiss strain (body weight: 22-25 g). The death rate was recorded 9 days after the treatment. […]

[4] = system: aconitine-induced dysrhythmia; experiment: Anti-dysrhythmic activity, aconitine test in rats; assay type: in vivo, rat
Method: The animals are anesthetized with urethane (1 g/kg i.p.); an aconitine sulfate injection (27.5 μg/kg) is made in the pre-catheterized jugular vein, 30 minutes after administration by the same route of one of the test compounds. The time delay before the appearance of the first burst of dysrhythmia is noted on the electrocardiogram (D2 lead recording) and compared with reference animals.

[5] = system: human plasma clots; experiment: Fibrinolytic activity (lysis of human plasma clots); design: Concentration inducing lysis of the clot within 24 hours / Concentration inducing lysis of the clot within 48 hours: unit not given here; settings: for Concentration inducing lysis of the clot within 24 hours / Concentration inducing lysis of the clot within 48 hours: human plasma clot, veronal buffer pH 7.2-7.4, 37° C.
Method: The following method was used.
Human plasma clots were prepared by recalcification (one drop of calcium thrombase at 20 U/ml per 0.5 ml of plasma), so that the clot formed around the hook of a glass rod. The clots were then suspended in buffered solutions (veronal buffer pH 7.2-7.4) maintained at 37° C. The eventual lysis of the clot is recorded after 24 hrs and 48 hrs incubation.

[6] = system: male mice of Swiss strain; experiment: Acute Toxicity in Mice; assay type: in vivo; settings: result in words
Method: as §1

[7] = system: α-adrenolytic activity; experiment: α-adrenolytic activity observed in dog after an injection of nor-adrenalin; assay type: in vivo; settings: result in words
[8] = rabbit PRP, 37° C., collagen, threshold concentrations
[9] = Rattus norvegicus, iv, read-out: Aconitine-induced dysrhythmia, percent animals protected

SMILES | mortality at 216 h ([3]; po, 200 mg/kg p.o.) [%] | mortality at 216 h ([3]; ip, 100 mg/kg i.p.) [%] | minimal effective concentration [1, 8] [µg/mL] | Concentration inducing lysis of the clot within 48 hours [5] | also measured
COc1ccc(CCN=C2CCCN2C)cc1OC [Compound A, 1-methyl-2-[(3,4-dimethoxy-phenylethyl)imino]pyrrolidine, reference compound] | 0 |  |  |  | Collagen-induced blood-platelet aggregation: Threshold concentrations (inhibition of aggregation <50%) [1, 8]: inactive; action on the cardiac rhythm [2]: decreasing action on the cardiac rhythm; mortality at 216 h ([3]; ip, 200 mg/kg i.p.): 60%; responders at 5 mg/kg [4, 9]: 0%
CN1CC(c2ccccc2)CC1=NCCc1ccccc1 (stereo not drawn) [Example 1, 1-Methyl-4-phenyl-2-phenylethylimino-pyrrolidine] | 0 | 80 |  |  | responders at 1 mg/kg [4, 9]: 25%
CC(Cc1ccccc1)N=C1CC(c2ccccc2)CN1C (stereo not drawn) [Example 2, 1-Methyl-4-phenyl-2-phenylisopropylimino-pyrrolidine] | 83 | 100 | 10 |  | responders at 1 mg/kg [4, 9]: 67%
CN1CC(c2ccccc2)CC1=NCCOc1ccccc1 (stereo not drawn) [Example 3, 1-Methyl-4-phenyl-2-(2-phenoxy-ethylimino)pyrrolidine] | 0 |  | 1 to 3 |  | anti-blood-platelet-aggregation activity ([1]; result in words): possesses an anti-blood-platelet aggregating activity; Concentration inducing lysis of the clot within 24 hours [5]: 10-20; fibrinolytic activity ([5]; result in words): a fibrinolytic activity; toxicity [6]: least toxic in mice; mortality at 216 h ([3]; ip, 200 mg/kg i.p.): 0%; α-adrenolytic activity [7]: an α-adrenolytic activity; responders at 10 mg/kg [4, 9]: 83%; anti-arrhythmic activity ([4]; result in words): an anti-arrhythmic activity
COc1ccc(CCN=C2CC(c3ccccc3)CN2C)cc1OC (stereo not drawn) [Example 4, 1-Methyl-4-phenyl-2-(3',4'-dimethoxy-phenethylimino)pyrrolidine] | 0 |  | 10 to 30 |  | mortality at 216 h ([3]; ip, 200 mg/kg i.p.): 100%; responders at 7.5 mg/kg [4, 9]: 90%
CCN1CC(c2ccccc2)CC1=NCCc1ccc(OC)c(OC)c1 (stereo not drawn) [Example 5, 1-Ethyl-4-phenyl-2-(3',4'-dimethoxy-phenethylimino)pyrrolidine] | 0 | 20 | 3 to 10 |  | 
CCCN1CC(c2ccccc2)CC1=NCCOc1ccccc1 (stereo not drawn) [Example 6, 1-n.Propyl-4-phenyl-2-(phenoxyethyl-imino)pyrrolidine] |  |  | 1 to 3 | 5-10 | 
C=CCN1CC(c2ccccc2)CC1=NCCc1ccc(OC)c(OC)c1 (stereo not drawn) [Example 7, 1-Allyl-4-phenyl-2-(3',4'-dimethoxy-phenethyl-imino)pyrrolidine] |  |  | 10 | 10-20 | 
CCCN=C1CC(c2cc3ccccc3o2)CN1C (stereo not drawn) [Example 8, 1-Methyl-4-(2-benzofuryl)-2-n.propyl-imino-pyrrolidine] |  |  | 10 to 30 | 20 | 
C=CCN=C1CC(c2cc3ccccc3o2)CN1C (stereo not drawn) [Example 9, 1-Methyl-4-(2-benzofuryl)-2-allylimino-pyrrolidine] |  | 60 | 3 to 10 |  | mortality at 216 h ([3]; po, 100 mg/kg p.o.): 0%
C#CCN=C1CC(c2cc3ccccc3o2)CN1C (stereo not drawn) [Example 10, 1-Methyl-4-(2-benzofuryl)-2-propargylimino-pyrrolidine] |  |  | 100 |  | 
CN1CC(c2cc3ccccc3o2)CC1=NCCO (stereo not drawn) [Example 11] | 0 |  | 10 to 100 |  | mortality at 216 h ([3]; ip, 200 mg/kg i.p.): 80%
COCCN=C1CC(c2cc3ccccc3o2)CN1C (stereo not drawn) [Example 12, 1-Methyl-4-(2-benzofuryl)-2-(2-methoxy-ethylimino)-pyrrolidine] | 0 | 100 | 3 to 30 |  | 
CN1CC(c2cc3ccccc3o2)CC1=NCCc1ccccc1 (stereo not drawn) [Example 13, 1-Methyl-4-(2-benzofuryl)-2-phenethylimino-pyrrolidine] | 0 | 100 | 3 to 30 | 2.5-5 | Concentration inducing lysis of the clot within 24 hours [5]: 10; responders at 5 mg/kg [4, 9]: 50%
CC(Cc1ccccc1)N=C1CC(c2cc3ccccc3o2)CN1C (stereo not drawn) [Example 14, 1-Methyl-4-(2-benzofuryl)-2-phenylisopropyl-imino-pyrrolidine] | 0 | 80 | 3 to 10 |  | responders at 5 mg/kg [4, 9]: 100%
CN1CC(c2cc3ccccc3o2)CC1=NCCOc1ccccc1 (stereo not drawn) [Example 15, 1-Methyl-4-(2-benzofuryl)-2-(2-phenoxy-ethylimino)-pyrrolidine] | 10 | 100 |  |  | responders at 5 mg/kg [4, 9]: 80%
COc1ccc(CCN=C2CC(c3cc4ccccc4o3)CN2C)cc1OC (stereo not drawn) [Example 16] | 0 | 100 | 10 to 30 |  | responders at 3 mg/kg [4, 9]: 80%
CN1CC(COc2ccccc2)CC1=NCCOc1ccccc1 (stereo not drawn) [Example 17, 1-Methyl-4-phenoxymethyl-2-(2-phenoxy-ethylimino)-pyrrolidine] |  |  | 3 |  | responders at 10 mg/kg [4, 9]: 100%
COc1ccc(CCN=C2CC(COc3ccccc3)CN2C)cc1OC (stereo not drawn) [Example 18, 1-Methyl-4-phenoxymethyl-2-(3',4'-dimethoxy-phenethylimino)pyrrolidine] | 0 | 40 | 10 to 30 | 20 | responders at 5 mg/kg [4, 9]: 100%
CN1CC(COc2ccc3c(c2)OCO3)CC1=NCCOc1ccccc1 (stereo not drawn) [Example 19, 1-Methyl-4-(3',4'-methylenedioxy-phenoxymethyl)-2-(2-phenoxy-ethylimino)-pyrrolidine] | 0 | 80 | 3 to 10 |  | responders at 2.5 mg/kg [4, 9]: 25%
COc1ccc(CCN=C2CC(COc3ccc4c(c3)OCO4)CN2C)cc1OC (stereo not drawn) [Example 20, 1-Methyl-4-(3',4'-methylenedioxy-phenoxymethyl)-4-(3',4'-dimethoxy-phenethylimino)pyrrolidine] | 0 | 80 | 10 to 30 |  | responders at 10 mg/kg [4, 9]: 100%
CCc1ccccc1OCC1CC(=NCCc2ccc(OC)c(OC)c2)N(C)C1 (stereo not drawn) [Example 21, 1-Methyl-4-(2'-ethyl-phenoxymethyl)-2-(3',4'-dimethoxy-phenethylimino)pyrrolidine] | 0 |  | 3 | 10-20 | mortality at 216 h ([3]; ip, 33 mg/kg i.p.): 20%; responders at 7.5 mg/kg [4, 9]: 100%
CN1CC(COc2ccccc2C#N)CC1=NCCOc1ccccc1 (stereo not drawn) [Example 22, 1-Methyl-4-(2'-cyano-phenoxymethyl)-2-(2-phenoxyethylimino)-pyrrolidine] | 0 |  | 30 | 5-10 | Concentration inducing lysis of the clot within 24 hours [5]: 20; mortality at 216 h ([3]; ip, 33 mg/kg i.p.): 40%
